EPA's ToxRefDB 2

Columns and labels:
[1] = test system: dog; conditions: Chronic toxicity, beagle, Oral, Feed, dose end: 52 week, group: systemic
[2] = test system: rat; conditions: Subchronic oral toxicity in rodents, sprague dawley, Feed, dose end: 90 day, group: systemic, systemic / clinical chemistry / cytochrome p450, nos / cytochrome p450, nos + systemic / in life observation / body weight / body weight …
[3] = test system: mouse; conditions: Subchronic oral toxicity in rodents, cd1, Feed, dose end: 90 day, group: systemic, systemic / organ weight / liver / absolute + systemic / organ weight / liver / relative to body weight + systemic / organ weight / liver / …
[4] = test system: rat; conditions: Combined chronic toxicity/carcinogenicity, sprague dawley, Oral, Feed, dose end: 23 month, group: systemic
[5] = test system: rabbit; conditions: Prenatal developmental toxicity study, other, Oral, Gavage/Intubation, dose end: 19 GD
[6] = test system: mouse; conditions: Carcinogenicity, cd1, Oral, Feed, dose end: 18 month, group: systemic
[7] = test system: dog; conditions: Subchronic oral toxicity in nonrodent, beagle, Feed, dose end: 90 day, group: systemic, systemic / hematology / erythrocyte (rbc) count differential / erythrocyte (rbc) + systemic / hematology / hematocrit (hct) / hematocrit (…
[8] = test system: rat; conditions: Multigenerational reproductive toxicity study, other, Oral, Feed, dose end: 2 generation
[9] = test system: rat; conditions: Prenatal developmental toxicity study, sprague dawley, Oral, Gavage/Intubation, dose end: 16 GD
[10] = systemic / in life observation / body weight / body weight gain + systemic / organ weight / thyroid gland / absolute + systemic / organ …
[11] = systemic / in life observation / clinical signs / salivation
[12] = systemic / hematology / erythrocyte (rbc) count differential / erythrocyte (rbc) + systemic / hematology / hematocrit (hct) / hematocrit (…
[13] = group: developmental, systemic / in life observation / body weight / fetal weight
[14] = group: maternal, reproductive / reproductive performance / resorptions / resorptions + systemic / in life observation / body weight / body weight gain + …
[15] = systemic / pathology microscopic / liver / adenoma
[16] = systemic / pathology microscopic / liver / adenoma + systemic / hematology / platelet / platelet + systemic / in life observation / body …
[17] = group: offspring, systemic / in life observation / body weight / offspring (pup) weight + systemic / in life observation / body weight / offspring (pup) …
[18] = group: parental, systemic / in life observation / body weight / body weight + systemic / in life observation / body weight / body weight gain + systemic / in…
[19] = group: developmental, developmental / developmental malformation / bone / delayed ossification + developmental / developmental malformation / bone / short
[20] = group: maternal, systemic / in life observation / clinical signs / salivation
[21] = group: maternal, systemic / in life observation / clinical signs / salivation + systemic / in life observation / body weight / body weight gain + systemic / …

## COc1cc(OC)nc(Sc2cccc(Cl)c2C(=O)[O-])n1.[Na+] [Pyrithiobac-sodium]
[1]; [10]
  LOAEL: 580 mg/kg/day
  NOAEL: 143 mg/kg/day
[1]; [11]
  LEL: 2.8 mg/kg/day
  NEL: < 2.8 mg/kg/day
[2]
  LEL: 31.8 mg/kg/day
  LOAEL: 31.8 mg/kg/day
  NEL: 3.25 mg/kg/day
  NOAEL: 3.25 mg/kg/day
[3]
  LEL: 263 mg/kg/day
  LOAEL: 263 mg/kg/day
  NEL: 83.1 mg/kg/day
  NOAEL: 83.1 mg/kg/day
[4]; systemic / clinical chemistry / sodium / sodium
  LEL: 1.36 mg/kg/day
[4]; systemic / clinical chemistry / sodium / sodium + systemic / pathology microscopic / kidney / adenoma + systemic / in life observation / …
  NEL: 0.274 mg/kg/day
[4]; [12]
  LOAEL: 200 mg/kg/day
  NOAEL: 58.7 mg/kg/day
[5]; [13]
  LEL: 1000 mg/kg/day
  LOAEL: 1000 mg/kg/day
  NEL: 300 mg/kg/day
  NOAEL: 300 mg/kg/day
[5]; [14]
  LEL: 1000 mg/kg/day
  LOAEL: 1000 mg/kg/day
  NEL: 300 mg/kg/day
  NOAEL: 300 mg/kg/day
[6]; [15]
  LEL: 21.4 mg/kg/day
  LOAEL: 21.4 mg/kg/day
[6]; [16]
  NEL: 1.43 mg/kg/day
  NOAEL: 1.43 mg/kg/day
[7]
  LEL: 626 mg/kg/day
  LOAEL: 626 mg/kg/day
  NEL: 165 mg/kg/day
  NOAEL: 165 mg/kg/day
[8]; group: offspring, systemic / in life observation / body weight / offspring (pup) weight
  LOAEL: 614 mg/kg/day
[8]; [17]
  LEL: 614 mg/kg/day
  NEL: 119 mg/kg/day
  NOAEL: 119 mg/kg/day
[8]; [18]
  LOAEL: 439 mg/kg/day
  NOAEL: 85.6 mg/kg/day
[8]; group: parental, systemic / in life observation / food consumption / food efficiency
  LEL: 119 mg/kg/day
[8]; group: parental, systemic / in life observation / food consumption / food efficiency + systemic / in life observation / body weight / body weight + systemic…
  NEL: 1.93 mg/kg/day
[9]; [19]
  LEL: 1800 mg/kg/day
  LOAEL: 1800 mg/kg/day
  NEL: 600 mg/kg/day
  NOAEL: 600 mg/kg/day
[9]; [20]
  LEL: 200 mg/kg/day
  LOAEL: 200 mg/kg/day
[9]; [21]
  NEL: 30 mg/kg/day
  NOAEL: 30 mg/kg/day
